Read-outs that look alike come from different tables or passages of the source.

The test system of data set [1] is P. falciparum Pf3D7 (CQ-sensitive) erythrocytic stages. In words: In vitro drug sensitivity assay (HRP2-ELISA) against erythrocytic stages, strain 3D7. The format is cell-based. To be noted: Plasmodium falciparum, 72 h, read-out: IC50 Pf3D7. As to the method: (§1) Antiplasmodial activity of fumardiamides 1–6 and 11–16 was tested in a drug sensitivity assay against two laboratory P. falciparum strains (3D7—CQ-sensitive, and Dd2—CQ-resistant), as previously described, using the histidine-rich protein 2 (HRP2) assay. In brief, 96-well plates were pre-coated with the tested compounds in a three-fold dilution before ring stage parasites were added in complete culture medium at a hematocrit of 1.5% and a parasitaemia of 0.05%. After three days of incubation at 37 °C, 5% CO2, and 5% oxygen, plates were frozen until analyzed by HRP2-ELISA. All compounds were evaluated in duplicate in at least two independent experiments. The IC50 was determined by analysing the nonlinear regression of log concentration-response curves using the drc-package v0.9.0 of R v2.6.1 [27].

In data set [2] the test system is P. falciparum PfDd2 (CQ-resistant) erythrocytic stages. In words: In vitro drug sensitivity assay (HRP2-ELISA) against erythrocytic stages, strain Dd2. The format is cell-based. To be noted: Plasmodium falciparum, 72 h, read-out: IC50 PfDd2. As to the method:
as §1

Data set [3] has as its system P. berghei hepatic stages. In words: In vitro activity against P. berghei hepatic stages (luciferase parasite load in Huh7 cells). To be noted: Plasmodium berghei, Huh-7, read-out: IC50 P. bergei. Format: cell-based. As to the method: In vitro activity of the tested compounds against the liver stage of P. berghei infection was assessed as previously described. […] Next, 10 mM stock solutions of test compounds were prepared in DMSO and were serially diluted in infection medium, i.e., culture medium supplemented with gentamicin (50 μg/mL) and amphotericin B (0.8 μg/mL), in order to obtain the test concentrations.
To assess the effect of each compound concentration in cell viability, at 46 hours post-infection (hpi), cultures were incubated with Alamar Blue (Thermo Fisher Scientific, Waltham, MA, USA), according to the manufacturer’s recommendations. Parasite load was then assessed by the bioluminescence assay (Biotium, Fremont, CA, USA), using the multi-plate reader Infinite M200 (Tecan, Männedorf, Switzerland). Nonlinear regression analysis was employed to fit the normalized results of the dose–response curves, and IC50 values were determined using GraphPad Prism 6.0 (GraphPad Software, La Jolla California USA).

The subject of data set [4] is HEK293T (non-tumour embryonic kidney). In words: Cytotoxicity MTT assay, HEK293T. The format is cell-based. To be noted: Homo sapiens, HEK-293T, read-out: IC50 HEK293T. As to the method:
(§2) The experiments were carried out on 2 human cell lines: MCF-7 (breast carcinoma) and HEK293T (embryonic kidney). MCF-7 and HEK293T cells were cultured as monolayers and maintained in Dulbecco’s modified Eagle medium (DMEM), supplemented with 10% fetal bovine serum (FBS), 2 mM L-glutamine, 100 U/mL penicillin, and 100 μg/mL streptomycin in a humidified atmosphere with 5% CO2 at 37 °C. The panel cell lines were inoculated in parallel onto a series of standard 96-well microtiter plates on day 0, at 1 × 10^4 to 3 × 10^4 cells/mL, depending on the doubling time of a specific cell line. Test compounds were then added in five 10-fold dilutions (10^−8 to 10^−4 M) alone or in combination with 6-AN (c = 1 µM) and incubated for a further 72 hours. Working dilutions were freshly prepared on the day of the testing.
(§3) After 72 hours of incubation, the cell growth rate was evaluated by performing the MTT assay. The absorbance was directly proportional to cell viability. Each test point was performed in quadruplicate in three individual experiments. The IC50 values were calculated from the dose–response curves using linear regression analysis. Each result is a mean value from at least two separate experiments.

In data set [5] the test system is MCF-7 (breast adenocarcinoma). In words: Cytotoxicity MTT assay, MCF-7. To be noted: Homo sapiens, read-out: IC50 MCF-7. The format is cell-based. As to the method:
as §2, §3

Details of data set [6]: method as in PMID 24360369. To be noted: cited from earlier work.
Setting [7] is: erythrocytic stages, CQ-sensitive strain, three days of incubation, HRP2-ELISA.
Where [8] appears, read: erythrocytic stages, CQ-resistant strain, three days of incubation, HRP2-ELISA.

Take `O=C(/C=C/C(=O)Nc1ccc(C(F)(F)F)cc1)NCCCCNc1ccnc2cc(Cl)ccc12` [Compound 16, (2E)-N’-{4-[(7-chloroquinolin-4-yl)amino]butyl}-N-[4-(trifluoromethyl)phenyl]but-2-enediamide]: the melting point is 270 °C (dec.). For the same molecule, in data set [1] (setting [7]), the IC50 was found to be 0.035 µM. Also, the IC50 in data set [2] (setting [8]) came to 0.379 µM.

On to `O=C(/C=C/C(=O)Nc1ccc(Cl)cc1)NCCCCNc1ccnc2cc(Cl)ccc12` [Compound 14, (2E)-N-(4-chlorophenyl)-N’-{4-[(7-chloroquinolin-4-yl)amino]butyl}but-2-enediamide], for which the melting point is 237 °C (dec.). Further, in data set [1] (setting [7]), the IC50 worked out at 0.035 µM. The IC50 in data set [2] (setting [8]) amounted to 0.89 µM.

Turning to `CCN(CC)CCCC(C)Nc1ccnc2cc(Cl)ccc12` (stereo not shown) [CQ, chloroquine], the IC50 in data set [1] amounted to 0.0037 µM; in data set [2], 0.241 µM.

For the molecule `COc1cc(NC(C)CCCNC(=O)/C=C/C(=O)Nc2ccc(C(F)(F)F)cc2)c2ncccc2c1` (stereo not shown) [Compound 6], the IC50 is 0.11 ± 0.02 µM in data set [3]; 13 µM in data set [1] (setting [7]); at least 100 µM in data set [4] (alone, 72 hours, MTT); at least 100 µM in data set [5] (MCF7, alone, 72 hours, MTT); 18.4 µM in data set [2] (setting [8]).

`COc1cc(NC(C)CCCN)c2ncccc2c1` (stereo not shown) [PQ, primaquine]: the IC50 turned out to be 8.4 ± 3.4 µM in data set [3], 1.99 µM in data set [1] (setting [7]) and 1.82 µM in data set [2] (setting [8]).

Take `COc1cc(NC(C)CCCNC(=O)/C=C/C(=O)Nc2ccc(Cl)cc2)c2ncccc2c1` (stereo not shown) [Compound 4]: the IC50 in data set [3] is 0.39 ± 0.01 µM; in data set [1] (setting [7]), above 13 µM; in data set [2] (setting [8]), above 13 µM.

With `COc1cc(NC(C)CCCNC(=O)/C=C/C(=O)Nc2ccc(F)cc2)c2ncccc2c1` (stereo not shown) [Compound 2], the IC50 in data set [1] (setting [7]) is 7.74 µM; in data set [2] (setting [8]), above 13 µM.

Regarding `O=C(/C=C/C(=O)Nc1ccc(F)cc1)NCCCCNc1ccnc2cc(Cl)ccc12` [Compound 12, (2E)-N’-{4-[(7-chloroquinolin-4-yl)amino]butyl}-N-(4-fluorophenyl)but-2-enediamide], the melting point was 239 °C (dec.). Besides, the IC50 in data set [1] (setting [7]) was found to be 0.067 µM. Besides, the IC50 in data set [2] (setting [8]) worked out at 1.88 µM.

`COc1cc(C)c2c(Oc3cccc(C(F)(F)F)c3)c(OC)cc(NC(C)CCCN)c2n1` (stereo not shown) [TQ, Tafenoquine]: in data set [6], the elimination half-life result is “approximately 15 days”.

As to `COc1cc(NC(C)CCCNC(=O)/C=C/C(=O)Nc2cccc(F)c2)c2ncccc2c1` (stereo not shown) [Compound 1], the IC50 in data set [1] (setting [7]) came to 13.8 µM; in data set [2] (setting [8]), 20 µM.

For `NC(=O)c1ccc(N)nc1` [Compound 6-AN, 6-aminonicotinamide, reference compound], the IC50 in data set [4] (72 h) stood at 10 ± 7 µM; in data set [5] (MCF7, 72 h) it was 2 ± 0.3 µM.

`O=C(/C=C/C(=O)Nc1cccc(Cl)c1)NCCCCNc1ccnc2cc(Cl)ccc12` [Compound 13, (2E)-N-(3-chlorophenyl)-N’-{4-[(7-chloroquinolin-4-yl)amino]butyl}but-2-enediamide]: the half-inhibitory concentration (IC50) in data set [1] (setting [7]) is 0.083 µM; in data set [2] (setting [8]), 6.96 µM.

As to `O=C(/C=C/C(=O)Nc1cccc(C(F)(F)F)c1)NCCCCNc1ccnc2cc(Cl)ccc12` [Compound 15, (2E)-N’-{4-[(7-chloroquinolin-4-yl)amino]butyl}-N-[3-(trifluoromethyl)phenyl]but-2-enediamide], the IC50 came to 0.194 µM in data set [1] (setting [7]) and 3.22 µM in data set [2] (setting [8]).

For the molecule `COc1cc(NC(C)CCCNC(=O)/C=C/C(=O)Nc2cccc(C(F)(F)F)c2)c2ncccc2c1` (stereo not shown) [Compound 5], the half-inhibitory concentration (IC50) in data set [3] was 0.27 ± 0.08 µM; in data set [1] (setting [7]), 13.9 µM; in data set [4] (alone, 72 hours, MTT) it was at least 100 µM; in data set [5] (MCF7, alone, 72 hours, MTT) it was at least 100 µM; in data set [2] (setting [8]), 10.7 µM.

In the case of `O=C(/C=C/C(=O)Nc1cccc(F)c1)NCCCCNc1ccnc2cc(Cl)ccc12` [Compound 11, (2E)-N’-{4-[(7-chloroquinolin-4-yl)amino]butyl}-N-(3-fluorophenyl)but-2-enediamide], the IC50 in data set [1] (setting [7]) is 0.144 µM; in data set [2] (setting [8]), 7.02 µM.

Take `COc1cc(NC(C)CCCNC(=O)/C=C/C(=O)Nc2cccc(Cl)c2)c2ncccc2c1` (stereo not shown) [Compound 3]: the IC50 in data set [3] was 0.27 ± 0.06 µM; in data set [1] (setting [7]), above 13 µM; in data set [2] (setting [8]), 13.6 µM.

These data come from publication PMC6695747, “Primaquine and Chloroquine Fumardiamides as Promising Antiplasmodial Agents” (Molecules, 2019).
